IC50 data for 13 compounds are collected here from ChEMBL document CHEMBL3632597, “Synthesis and biological evaluation of 5-(fluoro-substituted-6-methylpyridin-2-yl)-4-([1,2,4]triazolo[1,5-a]pyridin-6-yl)imidazoles as inhibitors of transforming growth factor-β type I receptor kinase” (Bioorg Med Chem Lett, 2015).

The structures appear in SMILES notation. pIC50: −log10 of the molar value.

For experiment [1], the target named is Mitogen-activated protein kinase 14 (Homo sapiens, UniProt Q16539). Nature of the experiment: Inhibition of human recombinant p38alpha expressed in Escherichia coli using ATF2 as substrate by proprietary radioisotopic protein kinase assay.
Mitogen-activated protein kinase 14, sequence (Q16539 whole entry): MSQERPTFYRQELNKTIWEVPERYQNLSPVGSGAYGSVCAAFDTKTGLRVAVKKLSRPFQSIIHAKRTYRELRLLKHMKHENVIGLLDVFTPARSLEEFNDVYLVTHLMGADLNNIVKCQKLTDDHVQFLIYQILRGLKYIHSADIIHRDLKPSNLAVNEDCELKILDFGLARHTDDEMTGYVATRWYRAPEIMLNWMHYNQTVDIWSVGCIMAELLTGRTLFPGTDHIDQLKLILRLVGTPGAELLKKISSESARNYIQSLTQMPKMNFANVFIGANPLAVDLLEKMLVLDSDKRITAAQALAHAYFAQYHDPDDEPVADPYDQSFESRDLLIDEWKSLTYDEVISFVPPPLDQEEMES
The next experiment addresses T1, TGF-beta receptor type-1 (Homo sapiens, UniProt P36897).
T1 sequence (P36897 whole entry): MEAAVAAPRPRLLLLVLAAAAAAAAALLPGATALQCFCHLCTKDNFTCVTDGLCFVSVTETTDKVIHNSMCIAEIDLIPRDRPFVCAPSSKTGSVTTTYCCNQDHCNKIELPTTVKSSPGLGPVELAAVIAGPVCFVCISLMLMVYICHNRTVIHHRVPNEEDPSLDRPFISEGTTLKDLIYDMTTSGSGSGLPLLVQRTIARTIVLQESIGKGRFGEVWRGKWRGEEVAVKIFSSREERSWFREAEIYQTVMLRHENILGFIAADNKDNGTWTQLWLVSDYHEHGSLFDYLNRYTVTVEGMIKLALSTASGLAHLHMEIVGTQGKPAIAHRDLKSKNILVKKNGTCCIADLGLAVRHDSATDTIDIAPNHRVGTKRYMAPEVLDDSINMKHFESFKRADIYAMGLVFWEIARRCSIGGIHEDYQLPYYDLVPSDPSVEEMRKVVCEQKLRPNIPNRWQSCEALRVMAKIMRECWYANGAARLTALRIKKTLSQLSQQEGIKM
Nature of the experiment: Inhibition of human recombinant GST-fused ALK5 expressed in Sf9 insect cells using casein as substrate by proprietary radioisotopic protein kinase assay.

As to `Cc1cccc(-c2nn3c(c2-c2ccnc4ccc(C(N)=O)cc24)CCC3)n1` [GALUNISERTIB], the pIC50 in experiment [1] is 6.39. Consider `Cc1ccc(F)c(-c2[nH]c(CNc3cccc(C#N)c3)nc2-c2ccc3ncnn3c2)n1`, for which the pIC50 is 6.68 in experiment [1] and 8.03 at TGF-beta receptor type-1.

As to `Cc1ccc(F)c(-c2[nH]c(CNc3cccc(C(N)=O)c3)nc2-c2ccc3ncnn3c2)n1`, the pIC50 in experiment [1] was 6.60; at TGF-beta receptor type-1, 7.96. Taken in the same sequence, the figures for `C=Cc1cccc(NCc2nc(-c3ccc4ncnn4c3)c(-c3ccc(F)c(C)n3)[nH]2)c1` were 5.74 and 7.86. In the case of `Cc1ccc(F)c(-c2[nH]c(CNc3ccccc3)nc2-c2ccc3ncnn3c2)n1`, the pIC50 in experiment [1] was 6.40; on TGF-beta receptor type-1, 8.01. As to `Cc1cc(F)cc(-c2[nH]c(CNc3ccccc3F)nc2-c2ccc3ncnn3c2)n1`, the pIC50 is less than 5.00 in experiment [1] and 7.38 on TGF-beta receptor type-1.

`Cc1nc(-c2[nH]c(CNc3ccccc3F)nc2-c2ccc3ncnn3c2)ccc1F`: the pIC50 in experiment [1] was 5.47; at TGF-beta receptor type-1 it was 7.90. Turning to `Cc1nc(-c2[nH]c(CNc3cccc(C(N)=O)c3)nc2-c2ccc3ncnn3c2)ccc1F`, the values for the pIC50 (in experiment [1]; at TGF-beta receptor type-1) were 5.83 and 7.97, respectively.

For `Cc1nc(-c2[nH]c(CNc3cccc(C#N)c3)nc2-c2ccc3ncnn3c2)ccc1F`, the results for the pIC50 (in experiment [1]; on TGF-beta receptor type-1) were 5.91 and 8.11, respectively.

Consider `Cc1nc(-c2[nH]c(CNc3ccccc3)nc2-c2ccc3ncnn3c2)ccc1F`, for which the pIC50 in experiment [1] is 5.69; on TGF-beta receptor type-1 it was 8.03. With `Cc1ccc(F)c(-c2[nH]c(CNc3ccccc3F)nc2-c2ccc3ncnn3c2)n1`, the negative-log IC50 (pIC50) was 6.12 in experiment [1] and 7.92 on TGF-beta receptor type-1. For `C=Cc1cccc(NCc2nc(-c3ccc4ncnn4c3)c(-c3nc(C)ccc3F)[nH]2)c1` the same measures were 6.77 and 8.01. `Cc1cc(F)cc(-c2[nH]c(CNc3ccccc3)nc2-c2ccc3ncnn3c2)n1`: the negative logarithm of the IC50 (pIC50) in experiment [1] was less than 5.00; on TGF-beta receptor type-1 it was 7.14.

The pIC50 is the negative decadic logarithm of the IC50, by convention in mol/L.
